Molecules are shown by their SMILES. Read-outs that look alike come from different tables or passages of the source. Bounds are passed on as bounds.

One test addresses T1, KRAS G12D/RAF1 (Homo sapiens, UniProt P01116, G12D).
T1 construct: His6-MBP (N, cleaved yes); made in house; host or cells: E. coli
The test can be described thus: Protein-protein interaction (PPI) HTRF assay KRAS G12D/RAF1. It counts as binding. The method in brief: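 HTRF pairing of His-tagged RAF1 (52-131) plus Tb-cryptate donor with GppNHp-exchanged biotin-RAS (KRAS 1-169 wt/G12D/G12V, NRAS wt) plus streptavidin-d2 acceptor; compound sits 30 min with RAS first, then 1 h RT with RAF1. IC50 derived from 665/615 ratio, untagged RAF1 defining full inhibition.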
A general note: TR-FRET usually uses a lanthanide donor and a delayed reading to cut background.

Test [1] deals with AGS cells (KRAS G12D), phospho-ERK. The test can be described thus: pERK In Cell Western (ICW) assay (Method B), AGS cells. The format is cell-based. The following applies: Table 4, pERK, 3 hours, read-out: ICW-AGS. The protocol: pERK ICW is a high throughput screening assay to evaluate the cellular potency of mutant KRAS small molecule inhibitors. KRAS mutant cell lines AGS and GP2D (KRAS^G12D) were purchased from ATCC and maintained respectively in RPMI and DMEM medium supplemented with 10% fetal bovine serum and Penicillin/Streptomycin.
Cells grown in exponential phase were trypsinized, resuspended in fresh media, and viable cells were counted using a cell counter with Trypan Blue (BioRad TC20). Cells were seeded into 384-well plate (Greiner 781091) at density of 5,000 cells/well for AGS and 10,000 cells/well for GP2D and allowed to grow overnight in a 37° C. CO2 incubator. The next day, compounds were dispensed into wells with a ½ log, 10-point serial dilution and top concentration of […] using Tecan D300e dispenser and incubated for 3 hours in a 37° C. CO2 incubator. Cells were then fixed with paraformaldehyde (Electron Microscopy Sciences, 15710, 4% final concentration) for 30 min, permeabilized with wash buffer (1×PBS+0.1% Triton X-100) for 30 min and blocked with Odyssey blocking buffer (Li—COR 927-70001) for 1 hour, all at room temperature (RT). Phospho-ERK antibody (CST 4370L) was diluted 1:500 in Odyssey blocking+0.2% Tween 20 and incubated with cells overnight at 4° C. The next day, plates were washed 5× with wash buffer, incubated with IRDye 800 CW, Goat anti-Rabbit secondary antibody (Li—COR 926-32211, 1:500) and DRAQ5 (CST 4084L, 1:5,000) diluted in Odyssey blocking+0.2% Tween 20 for 1 hour, washed 5×, and imaged on an Odyssey CLx imaging system.
For data analysis, signal intensities from 800 (phosphor-ERK) and 700 (DRAQ5) channels were extracted, and phospho-ERK signals were normalized to DRAQ5 signals for each well and percent of DMSO control values were computed. Data were then imported into Graphpad Prism to compute half-maximal inhibitory concentrations (IC50) using a 4-parameter variable slope model. Z-factor for each plate was computed from signals derived from wells treated with either DMSO or […] of Trametinib. AGS pERK ICW (Method B) IC50 (uM) values of selected compounds are depicted in Table 2 with compounds having a value 0.001 uM to 0.01 uM as ++++; >0.01 uM to 0.1 uM as +++; >0.1 uM to 1 uM as ++; 1 uM to 10 uM as + and >10 uM as NA.

T1 sequence (P01116 with tags, fused parts or gaps isoform P01116-2 G12D): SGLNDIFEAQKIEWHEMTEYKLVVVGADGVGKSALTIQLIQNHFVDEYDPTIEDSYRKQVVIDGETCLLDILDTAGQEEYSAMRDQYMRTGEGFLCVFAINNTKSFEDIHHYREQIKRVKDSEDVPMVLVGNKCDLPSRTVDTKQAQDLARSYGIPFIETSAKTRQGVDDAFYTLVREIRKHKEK

In the case of `N#Cc1c(N2C[C@H]3CC[C@@H](C2)N3)nc(OCC2(CN3CCC(F)(F)CC3)CC2)nc1N1CC2(CCc3sc(N)c(C#N)c32)C1` [Compound 34, 2-amino-1′-[5-cyano-6-(3,8-diazabicyclo[3.2.1]octan-3-yl)-2-[[1-[(4,4-difluoro-1-piperidyl)methyl]cyclopropyl]methoxy]pyrimidin-4-yl]spiro[5,6-dihydrocyclopenta[b]thiophene-4,3′-azetidine]-3-carbonitrile], the IC50 against KRAS G12D/RAF1 (Table 4) is 100 to 1000 nM; in test [1] (Homo sapiens), 10 to 100 nM.

On to `N#Cc1c(N2C[C@H]3CC[C@@H](C2)N3)nc(OCC2(CN3CCOCC3)CC2)nc1N1CC2(CCCc3sc(N)c(C#N)c32)C1` [Compound 41, 2-amino-1′-[5-cyano-2-[[1-(morpholinomethyl)cyclopropyl]methoxy]-6-[(1R,5S)-3,8-diazabicyclo[3.2.1]octan-3-yl]pyrimidin-4-yl]spiro[6,7-dihydro-5H-benzothiophene-4,3′-azetidine]-3-carbonitrile], for which the IC50 against KRAS G12D/RAF1 (Table 4) fell in the range of 100 to 1000 nM; in test [1] (Homo sapiens), 10 to 100 nM.

As to `N#Cc1c(N2C[C@H]3COC[C@@H](C2)N3)nc(OCC2(CN3CCOCC3)CC2)nc1N1CC2(CCc3sc(N)c(C#N)c32)C1` [Compound 42, 2-amino-1′-[5-cyano-2-[[1-(morpholinomethyl)cyclopropyl]methoxy]-6-(3-oxa-7,9-diazabicyclo[3.3.1]nonan-7-yl)pyrimidin-4-yl]spiro[5,6-dihydrocyclopenta[b]thiophene-4,3′-azetidine]-3-carbonitrile], the IC50 lay in the range of 1000 to 10000 nM at KRAS G12D/RAF1 (Table 4) and 100 to 1000 nM in test [1] (Homo sapiens).

On to `CC1CC2(CN(c3nc(OCC4(CN5CCOCC5)CC4)nc(N4C[C@H]5CC[C@@H](C4)N5)c3C#N)C2)c2c1sc(N)c2C#N` (stereo partly drawn) [Compound 45, 2-amino-1-[5-cyano-2-[[1-(morpholinomethyl)cyclopropyl]methoxy]-6-[(1R,5S)-3,8-diazabicyclo[3.2.1]octan-3-yl]pyrimidin-4-yl]-6-methyl-spiro[5,6-dihydrocyclopenta[b]thiophene-4,3′-azetidine]-3-carbonitrile], for which the IC50 at KRAS G12D/RAF1 (Table 4) lay within 100 to 1000 nM; in test [1] (Homo sapiens), 10 to 100 nM.

For `Cc1nc(-c2nn3c(c2Cl)CN(c2nc(OC[C@@]45CCCN4C[C@H](F)C5)nc(N4CC5(CCc6sc(N)c(C#N)c65)C4)c2C#N)CCC3)no1` [Compound 46, 2-amino-1′-[6-[3-chloro-2-(5-methyl-1,2,4-oxadiazol-3-yl)-4,6,7,8-tetrahydropyrazolo[1,5-a][1,4]diazepin-5-yl]-5-cyano-2-[[(2R,8S)-2-fluoro-1,2,3,5,6,7-hexahydropyrrolizin-8-yl]methoxy]pyrimidin-4-yl]spiro[5,6-dihydrocyclopenta[b]thiophene-4,3′-azetidine]-3-carbonitrile], the IC50 was 1000 to 10000 nM at KRAS G12D/RAF1 (Table 4) and 100 to 1000 nM in test [1] (Homo sapiens).

For the molecule `CN(C)C1(COc2nc(N3C[C@H]4CC[C@@H](C3)N4)c(C#N)c(N3CC4(CCc5sc(N)c(C#N)c54)C3)n2)CC1` [Compound 47, 2-amino-1′-[5-cyano-6-[(1R,5S)-3,8-diazabicyclo[3.2.1]octan-3-yl]-2-[[1-(dimethylamino)cyclopropyl]methoxy]pyrimidin-4-yl]spiro[5,6-dihydrocyclopenta[b]thiophene-4,3′-azetidine]-3-carbonitrile], the IC50 at KRAS G12D/RAF1 (Table 4) lay in the range of 10000 to 100000 nM; in test [1] (Homo sapiens), 100 to 1000 nM.

For `CN(CCOc1nc(N2C[C@H]3CC[C@@H](C2)N3)c(C#N)c(N2CC3(CCc4sc(N)c(C#N)c43)C2)n1)C1CCC1` [Compound 48, 2-amino-1′-[5-cyano-2-[2-[cyclobutyl(methyl)amino]ethoxy]-6-[(1R,5S)-3,8-diazabicyclo[3.2.1]octan-3-yl]pyrimidin-4-yl]spiro[5,6-dihydrocyclopenta[b]thiophene-4,3′-azetidine]-3-carbonitrile], the values for the IC50 (at KRAS G12D/RAF1 (Table 4); in test [1] (Homo sapiens)) were 10000 to 100000 nM and 1000 to 10000 nM, respectively.

Turning to `CN(C)CC1(COc2nc(N3C[C@H]4CC[C@@H](C3)N4)c(C#N)c(N3CC4(CCc5sc(N)c(C#N)c54)C3)n2)COC1` [Compound 52, 2-amino-1′-[5-cyano-6-[(1R,5S)-3,8-diazabicyclo[3.2.1]octan-3-yl]-2-[[3-[(dimethylamino)methyl]oxetan-3-yl]methoxy]pyrimidin-4-yl]spiro[5,6-dihydrocyclopenta[b]thiophene-4,3′-azetidine]-3-carbonitrile], the IC50 (against KRAS G12D/RAF1 (Table 4); in test [1] (Homo sapiens)) was 100 to 1000 nM in each case.

In the case of `N#Cc1c(N2CCCn3nc(C(=O)C4CC4)c(Cl)c3C2)nc(OC[C@@]23CCCN2C[C@H](F)C3)nc1N1CC2(CCc3sc(N)c(C#N)c32)C1` [Compound 62, 2-amino-1′-[6-[3-chloro-2-(cyclopropanecarbonyl)-4,6,7,8-tetrahydropyrazolo[1,5-a][1,4]diazepin-5-yl]-5-cyano-2-[[(2R,8S)-2-fluoro-1,2,3,5,6,7-hexahydropyrrolizin-8-yl]methoxy]pyrimidin-4-yl]spiro[5,6-dihydrocyclopenta[b]thiophene-4,3′-azetidine]-3-carbonitrile], the IC50 at KRAS G12D/RAF1 (Table 4) was in the range of 10000 to 100000 nM; in test [1] (Homo sapiens), 10 to 100 nM.

As for `N#Cc1c(N2C[C@H]3CC[C@@H](C2)N3)nc(OCC2(CN3CCOCC3)CC2)nc1N1CC2(CCCCc3sc(N)c(C#N)c32)C1` [Compound 70, 2-amino-1′-[5-cyano-2-[[1-(morpholinomethyl)cyclopropyl]methoxy]-6-[(1R,5S)-3,8-diazabicyclo[3.2.1]octan-3-yl]pyrimidin-4-yl]spiro[5,6,7,8-tetrahydrocyclohepta[b]thiophene-4,3′-azetidine]-3-carbonitrile], the IC50 against KRAS G12D/RAF1 (Table 4) lay in the range of 100 to 1000 nM; in test [1] (Homo sapiens), 10 to 100 nM.

As to `CN(C)CC1(COc2nc(N3CC4CCC(C3)N4)c(C#N)c(N3CC4(CCc5sc(N)c(C#N)c54)C3)n2)CC1(F)F` (centres unmarked) [Compound 74A, 2-amino-1′-[5-cyano-6-(3,8-diazabicyclo[3.2.1]octan-3-yl)-2-[[(1*)-1-[(dimethylamino)methyl]-2,2-difluoro-cyclopropyl]methoxy]pyrimidin-4-yl]spiro[5,6-dihydrocyclopenta[b]thiophene-4,3′-azetidine]-3-carbonitrile], the IC50 at KRAS G12D/RAF1 (Table 4, listed as 74.1) was below 100 nM; in test [1] it was 1 to 10 nM.

On to `N#Cc1c(N2C[C@H]3CC[C@@H](C2)N3)nc(OCc2ccn[nH]2)nc1N1CC2(CCc3sc(N)c(C#N)c32)C1` [Compound 79, 2-amino-1′-[5-cyano-6-[(1R,5S)-3,8-diazabicyclo[3.2.1]octan-3-yl]-2-(1H-pyrazol-5-ylmethoxy)pyrimidin-4-yl]spiro[5,6-dihydrocyclopenta[b]thiophene-4,3′-azetidine]-3-carbonitrile], for which the IC50 against KRAS G12D/RAF1 (Table 4) lay within 100 to 1000 nM; in test [1] (Homo sapiens), 10 to 100 nM.

For the molecule `CN1CCN(CC2(COc3nc(N4C[C@H]5CC[C@@H](C4)N5)c(C#N)c(N4CC5(CCc6sc(N)c(C#N)c65)C4)n3)CC2)CC1=O` [Compound 80, 2-amino-1′-[5-cyano-2-[[1-[(4-methyl-3-oxo-piperazin-1-yl)methyl]cyclopropyl]methoxy]-6-[(1R,5S)-3,8-diazabicyclo[3.2.1]octan-3-yl]pyrimidin-4-yl]spiro[5,6-dihydrocyclopenta[b]thiophene-4,3′-azetidine]-3-carbonitrile], the IC50 against KRAS G12D/RAF1 (Table 4) lay within 100 to 1000 nM; in test [1] (Homo sapiens) it was 10 to 100 nM.

Source of the values: patent publication US12145947B2, “Pyrimidine based modulators and uses thereof” (Quanta Therapeutics, Inc., priority 2022, dated 2024).
